{"source": "patent US20160058771A1", "about": "“ALPHA-2 ADRENOCEPTOR AND SIGMA RECEPTOR LIGAND COMBINATIONS” (LABORATORIOS DEL DR. ESTEVE, S.A., priority 2013, published 2016)", "key": {"[1]": {"tested_on": "male Swiss CD-1 mice", "assay": "Tail-flick test (radiant heat, acute thermal pain)", "format": "in vivo", "protocol": "Tail-flick test is a classical model of acute thermal pain (D'Amour and Smith, 1941) Pain sensitivity is measured in response to a radiant heat beam focused on the mouse tail. Latency to the first pain response is recorded as a measure of thermal pain sensitivity. The withdrawal is a classic nocifensive reflex that removes the body apart from the source of pain.\nMale Swiss CD-1 mice weighing between 30 and 35 g (Charles River, Barcelona, Spain) were used for all the experiments. The drugs evaluated were compound 63.HCl and clonidine hydrochloride and guanfacine, as alpha-2 adrenergic agonists. Compound 63.HCl was injected intraperitoneally (i.p.) in a volume of 10 ml/kg in 0.5% hydroxypropyl methyl cellulose (HPMC) and clonidine or guanfacine were administered subcutaneously (s.c.) dissolved in isotonic saline (0.9% NaCl) solution, in a volume of 5 ml/kg. Control animals received the same volume of vehicle.\nAntinociception was assessed using the radiant heat tail-flick test as described by Moncada et al., 2003. Briefly, the animals were restrained in a Plexiglas tube and placed on the tail-flick apparatus. The radiant heat source was focused on the proximal portion of the tail at about […] of the tip. Vehicle tail-flick latency (VL) was determined using a stimulus intensity adjusted to elicit a mean reaction time in the range of 2-4 s. Following vehicle or compound administration, test latencies (TL) were obtained at 30 min. A cut off time of 10 s was employed in order to prevent tissue damage. All experiments were performed under blind conditions.\nData were expressed as means±S.E.M of the […] (s.).\n(§1) In order to generate dose-response curves, raw data were converted to % maximum possible antinociceptive effect using the following equation:\n(§2) % MPE=[(TL−VL)/(Cut off−VL)]·100\nwhere MPE: maximum possible antinociceptive effect; TL: test latencies and VL: vehicle latency. 2.1. Effects of the Compound 63.HCl Alone or Combined with the Alpha-2 Agonist Clonidine"}, "[2]": {"tested_on": "male Swiss CD-1 mice", "assay": "Hot-plate test (50° C., latency to hind paw licking)", "format": "in vivo", "conditions": "for analgesic effect (latency to hind paw licking): vs control, FIG. 6", "source_text": "The hot plate is another classical test of acute thermal nociception. This test consists of introducing mice into an open-ended cylindrical space with a floor consisting of a metallic plate that is heated to a constant temperature. Typical behavioural responses in mice are paw-licking and jumping (Le Bars et al., 2001)\nMale Swiss CD-1 mice weighing between 30 and 35 g (Charles River, Barcelona, Spain) were used for all the experiments. The drugs evaluated were the Sigma ligand Compound 63.HCl and the alpha-2 adrenergic agonists clonidine, guanfacine, and dexmedetomidine. Compound 63.HCl was injected intraperitoneally (i.p.) in a volume of 10 ml/kg in 0.5% hydroxypropyl methyl cellulose (HPMC), whereas clonidine, guanfacine and dexmedetomidine were administrated subcutaneously (s.c.) in saline, in a volume of 5 ml/kg. Control animals received the same volume of vehicle. The hot plate test was done 30 min after compound's administration. Mice were placed individually on the hot-plate at 50° C. and the reaction time starting from the placement of the mouse on the hot plate to the time of hind paw licking (HPL) was measured with a stopwatch. An independent untreated group of animals from each strain was used to evaluate the basal latencies and five times those values were chosen as the cut-off time to avoid tissue damage.\nData were expressed as means±S.E.M of the paw withdrawal latency (s).\nas §1, §2\nwhere MPE: maximum possible antinociceptive effect; TL: test latencies and VL: vehicle latency. 3.1. Effect of the Sigma Ligands Compound 63.HCl Alone or Combined with the Alpha-2 Agonist Clonidine"}}, "note": "Entries after “also recorded” stand apart in the source; their conditions may differ. Structures can show the parent of a compound that is named as a salt.", "data": [{"smiles": "Clc1cccc(Cl)c1N=C1NCCN1", "note": "[clonidine]", "values": [{"measurement": "ED50", "setting": "[1]; Mus musculus, clonidine alone, sc, 0.125-1 mg/kg, % MPE dose-response, FIG. 2, read-out: ED50 (50% effective dose of clonidine)", "value": 0.18, "unit": "mg/kg"}, {"measurement": "ED50", "setting": "[2]; Mus musculus, clonidine alone, sc, 0.125-1 mg/kg, FIG. 5, read-out: ED50 (50% effective dose of clonidine)", "value": 0.3, "unit": "mg/kg"}]}, {"smiles": "Cc1cc(OCCN2CCOCC2)nn1-c1ccc2ccccc2c1", "note": "[compound 63.HCl, 4-{2-[5-methyl-1-(naphthalen-2-yl)-1H-pyrazol-3-yloxy]ethyl}morpholine hydrochloride]", "values": [{"measurement": "effect on the dose-response curve of clonidine", "setting": "[1]; compound 63.HCl 40 mg/kg ip with clonidine 0.125-1 mg/kg sc, displacement to the left of the curve, FIG. 2", "value": "potentiates the antinociceptive effect of clonidine"}, {"measurement": "antinociceptive effect (tail withdrawal latency)", "setting": "[1]; compound 63.HCl alone, 5, 10 and 40 mg/kg ip, 30 min before test, vs vehicle, FIG. 1", "value": "failed to produce a statistically significant antinociceptive effect"}, {"measurement": "effect on the dose-response curve of clonidine", "setting": "[2]; Compound 63.HCl 40 mg/kg ip with clonidine 0.125-1 mg/kg sc, displacement to the left of the curve, FIG. 5", "value": "potentiated the antinociceptive effect of clonidine"}, {"measurement": "antinociceptive effect (latency to hind paw licking)", "setting": "[2]; Compound 63.HCl alone 40 mg/kg ip, 30 min before test, FIG. 4, FIG. 5, hydrochloride", "value": "failed to produce a statistically significant antinociceptive effect; also recorded: showed no activity"}]}, {"smiles": "Cc1cccc([C@H](C)c2cnc[nH]2)c1C", "note": "[dexmedetomidine]", "values": [{"measurement": "analgesic effect (latency to hind paw licking)", "setting": "[2]; dexmedetomidine alone 0.01 mg/kg s.c.", "value": "not effective compared to control group"}]}, {"smiles": "N=C(N)NC(=O)Cc1c(Cl)cccc1Cl", "note": "[guanfacine]", "values": [{"measurement": "analgesic effect (tail withdrawal latency)", "setting": "[1]; guanfacine alone 1.25 mg/kg s.c., vs vehicle, FIG. 3", "value": "not effective compared to vehicle"}, {"measurement": "analgesic effect (latency to hind paw licking)", "setting": "[2]; guanfacine alone 5 mg/kg s.c.", "value": "not effective compared to control group"}]}]}
